According to patent publication US4442093A, “Method for administering 24,25-dihydroxycholecalciferol to persons suffering from hypercalcemia” (Kureha Kagaku Kogyo Kabushiki Kaisha, priority 1981, dated 1984):

How the values were obtained:
[1] = test system: inorganic phosphate in serum; assay: Serum inorganic phosphate in 5/6-nephrectomized rats (Example 18); assay type: in vivo, male Wistar rats; settings: hyperphosphatemia due to 5/6-nephrectomy
Experimental: Ten milligrams of 24R,25-(OH)2 -D3 was dissolved in 10 ml of isopropyl alcohol and one ml of the thus obtained solution was admixed into 1,000 ml of distilled water under agitation. The thus obtained solution has the concentration of isopropyl alcohol of 0.1% by weight and the concentration of 24R,25-(OH)2 -D3 of 1 microgram/ml and was called as the composition for oral administration A (abbreviated and referred to as Composition A hereinafter). In a similar manner as the above, another composition for oral administration of the concentration of 24R,25-(OH)2 -D3 of 0.1 microgram/ml and the concentration of isopropyl alcohol of 0.1% by weight was prepared, and referred to hereinafter as Composition B.
Thirty male Wistar rats of average body weight of 200±30 g were subjected to operation of 5/6--nephrectomy.
Ten male Wistar rats of the same average body weight were subjected to sham operation. After one month of the operation, the above-mentioned Composition A or Composition B was given to each group (one group consisting of 10 animals) of the rats 6 times a week for 9 weeks to be taken ad lib. The amount of 24R,25-(OH)2 -D3 taken by each rat for a week was calculated from the total amount of water taken by the rats of the group, the total amount of water taken by the rats being actually measured week after week.

calcium level in serum [2] = assay: Serum calcium in rats made hypercalcemic with Vitamin D3 (Example 1); assay type: in vivo, male Wistar rats; settings: for Calcium level in serum: 24R 100 µg/kg oral, calcitonin 4 MRCU/kg s.c.
Experimental: To 16 subgroups of male Wistar rats of body weight of 150±40 g (one subgroup consisting of 5 rats), a solution of Vitamin D3 dissolved in corn oil at 600 micrograms/ml was orally administered once a day for continuous 4 days at a daily dose rate of 0.5 ml/100 g body weight to prepare the rats artifically suffering from hypercalcemia. After one day's fasting from the final administration of Vitamin D3, the calcium level in the serum of each rat of the first subgroup was on the average 13.5±0.4 mg/dl. The remaining 15 subgroups of the rats were divided into 3 groups each consisting of 5 subgroups and subjected to the following tests.
To the rats of the second group, a solution of porcine calcitonin in a physiological saline solution containing 4% by weight of gelatin was subcutaneously injected at a dose rate of 4 MRCU/kg body weight instead of the solution of 24R,25-(OH)2 -D3 and they were treated as those of the first group.
To the rats of the third group, only the same triglyceride ester as in the first group was orally administered, and they are treated in the same manner as in the first group.
The calcium level of the respective sera of the thus collected blood was determined by OCPC method (Orthocresol Phthalein Complexone method) and shown in Table 1.

[3] = test system: K-562 tumour cell derived from human leukemia; assay: Inhibition of proliferation of K-562 cells (Example 24); assay type: cell-based; settings: 3 days
Experimental: Cultured K-562 tumour cell derived from human leukemia, which proliferates in a suspended state in RPMI-1640 culture medium added with 10% by weight of fetal bovine serum was used in the following experiment.
The cells were cultured in the above-mentioned culture medium at an initial cell concentration of 1×10^5 cells/ml with or without adding 24R,25-(OH)2 -D3, which was placed in dishes kept in an incubator of an atmosphere consisting of 95% by volume of air and 5% by volume of gaseous carbon dioxide at 37° C. After culturing 3 days, the cultured medium was stained with tripan blue to count the total number of living cells. The results are shown in Table 18 with the specifically added substances into the culture medium other than fetal bovine serum of 10% by weight.

thymus = assay: Weight ratio of thymus to body and number of thymocytes in rats given puromycin aminonucleoside (Example 11); assay type: in vivo, male JCL-Wistar rats; settings: 100 µg/kg/day oral 12 days with puromycin aminonucleoside 15 mg/kg s.c.
Experimental: Thirty-two male JCL-Wistar rats in tenth week after birth were used in the present test while keeping them in a room at 21±1° C. and 60±5% RH with solid diet (CE 2) and water taken ad lib.
They were divided equally into 4 groups (one group consisting of 8 animals), their treatments in the test being as follows:
subcutaneous injection of puromycin aminonucleoside as in the second group and oral administration of 24R,25-(OH)2 -D3 dissolved in Panacete 810 once a day at a daily dose rate of 100 micrograms/kg for continuous 12 days.
subcutaneous injection of puromycin aminonucleoside as in the second group and oral administration of 24S,25-(OH)2 -D3 dissolved in Panacete 810 once a day at a daily dose rate of 100 micrograms/kg for continuous 12 days.
After uniformly loosing the thymus in phosphate buffer solution with a forcets and fully pipetting, the mixture was filtered through a stainless steel mesh (Tylar standard #200) and the filtrate containing the thymic cells was stained with Turk's solution. The thus stained specimen was subjected to counting under a microscope.

calcium level in serum [4] = assay: Serum calcium in patient with sarcoidosis accompanied by hypercalcemia (Example 8); assay type: in vivo, human; settings: person two
Experimental: To patient two diagnosed to be sarcoidosis accompanied by hypercalcemia of the calcium level in their serum of 14.0 mg/dl, the capsule composition similar to that prepared in Example 6 was administered orally at a daily dose of two capsules each containing 5 micrograms of 24R,25-(OH)2 -D3 for continuous 5 days. The calcium level in serum from the blood specimen collected on the sixth day of the commencement of the treatment was 10.8 mg/dl.

calcium level in serum [5] = assay: Serum calcium in hemodialysis patient hypercalcemic due to active Vitamin D3 (Example 7); assay type: in vivo, human; settings: person six; baseline
Experimental: person six who was subjected to hemodialysis on account of renal failure and became hypercalcemia due to the four month administration of active Vitamin D3 at a daily dose of 0.5 to 1.0 microgram was treated by the oral administration of the capsule composition similar to that prepared in Example 6 for three continuous days at a daily dose of 10 micrograms of 24R,25-(OH)2 -D3.

[6] = Acute oral mammalian toxicity; set-up: species or system male mouse of ICR-strain; settings: mouse, in vivo, read-out: LD50 (per os)
Experimental: 0.3 ml of ethanolic solution containing 150 mg of 24R,25-(OH)2 -D3 was suspended in 15 ml of Panacete® 810 (triglyceride ester of C8 and C10 -fatty acid, made by Nippon Oil & Fats Co., Ltd.) to obtain a suspension containing 2% by weight of ethanol. The thus prepared composition was orally administered to a group of male mouse of ICR-strain consisting of 10 animals at a dose rate of 150 mg of 24R,25-(OH)2 -D3 per kg.

C=C1CC[C@H](O)C/C1=C/C=C1\CCC[C@]2(C)[C@@H]([C@H](C)CC[C@@H](O)C(C)(C)O)CC[C@@H]12 [24R,25-(OH)2 -D3]
inorganic phosphate level in serum [1]: significant reduction of the inorganic phosphate level
period for which the reduced calcium level was maintained (calcium level in serum [2]; 100 µg/kg oral): 12 h
Calcium level in serum (calcium level in serum [2]; 2 h after administration): 12.5 ± 0.4 mg/dL
Calcium level in serum (calcium level in serum [2]; 5 h after administration): 11.0 ± 0.5 mg/dL
Calcium level in serum (calcium level in serum [2]; 8 h after administration): 10.5 ± 0.5 mg/dL
Calcium level in serum (calcium level in serum [2]; 12 h after administration): 10.5 ± 0.4 mg/dL
Calcium level in serum (calcium level in serum [2]; 24 h after administration): 10.8 ± 0.3 mg/dL
Number of K-562 cells after culture ([3]; 1 microgram/ml): 8.5 ×10^5 cells/ml
Number of K-562 cells after culture ([3]; 10 micrograms/ml): 3.5 ×10^5 cells/ml
inhibition at 1 µg/mL ([3]; Homo sapiens, K562, 72 h, 1 microgram/ml, vs dimethylsulfoxide, read-out: Inhibition Rate of K-562 cells): 14%
inhibition at 10 µg/mL ([3]; Homo sapiens, K562, 72 h, 10 micrograms/ml, vs dimethylsulfoxide, read-out: Inhibition Rate of K-562 cells): 65%
Number of thymocytes (thymus): (32 ± 5.5) × 10^7
Weight ratio: thymus/body (thymus): 0.00101 ± 0.00011
calcium level in serum before treatment (calcium level in serum [4]; baseline): 14.0 mg/dL
calcium level in serum on the sixth day (calcium level in serum [4]; two 5 µg capsules/day oral, 5 days): 10.8 mg/dL
calcium level in serum before the administration (calcium level in serum [5]): 12.8 mg/dL
LD50 at 336 h [6]: > 150 mg/kg
